Source: patent publication US7390812B2, “N, N'-disubstituted piperazine compounds and their use as analgesics” (Gruenenthal GmbH, priority 2001, dated 2008)

What follows are molecules tested against T1, NA transporter (Rattus norvegicus, UniProt Q63380) (assay: Noradrenaline reuptake inhibition (NA uptake inhibition) in synaptosomes). Conditions: synaptosomes from hypothalamus of male rat brains.
T1 construct: synaptosomes were freshly isolated from rat brain regions; from tissue; host or cells: rat hypothalamus synaptosomes (P2 fraction)
T1 sequence (Q63380 1-617): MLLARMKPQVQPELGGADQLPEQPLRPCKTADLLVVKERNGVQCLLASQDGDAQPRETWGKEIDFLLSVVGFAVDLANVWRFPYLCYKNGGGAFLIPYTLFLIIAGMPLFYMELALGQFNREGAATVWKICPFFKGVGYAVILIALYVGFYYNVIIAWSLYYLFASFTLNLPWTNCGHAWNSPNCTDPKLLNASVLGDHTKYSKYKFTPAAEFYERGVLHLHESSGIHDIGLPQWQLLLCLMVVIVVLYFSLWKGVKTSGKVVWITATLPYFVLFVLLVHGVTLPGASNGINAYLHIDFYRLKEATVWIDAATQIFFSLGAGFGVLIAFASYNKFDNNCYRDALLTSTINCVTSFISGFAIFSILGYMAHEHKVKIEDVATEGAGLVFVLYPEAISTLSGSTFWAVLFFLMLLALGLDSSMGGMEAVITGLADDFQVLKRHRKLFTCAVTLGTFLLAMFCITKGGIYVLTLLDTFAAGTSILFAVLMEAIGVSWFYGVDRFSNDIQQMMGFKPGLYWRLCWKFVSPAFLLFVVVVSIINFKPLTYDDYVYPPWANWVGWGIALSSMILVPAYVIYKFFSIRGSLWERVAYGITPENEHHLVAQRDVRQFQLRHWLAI
Assay type: biochemical
Protocol: In order to be able to carry out these in vitro studies, synaptosomes were freshly isolated from rat brain regions. A so-called “P2” fraction was used, which was prepared according to the instructions given by Gray and Whittaker (E. G. Gray and V. P. Whittaker (1962) J. Anat. 76, 79-88).

Row | Molecule | inhibition at 10 µM
1 | CN1CCN(CC2CCCCC2(O)c2ccc(F)cc2)CC1 (stereo not shown) [1-(4-Fluoro-phenyl)-2-(4-methyl-piperazin-1-ylmethyl)-cyclohexanol] | 51%
2 | CCC(O)(Cc1cccc(C)c1)C(C)CN1CCN(c2cccc(Cl)c2)CC1 (stereo not shown) [1-[4-(3-Chloro-phenyl)-piperazin-1-yl]-2-methyl-3-(3-methyl-benzyl)-pentan-3-ol] | 55%
3 | CCC(O)(c1cccc(C(F)(F)F)c1)C(C)CN1CCN(c2cccc(Cl)c2)CC1 (stereo not shown) [1-[4-(3-Chloro-phenyl)-piperazin-1-yl]-2-methyl-3-(3-trifluoromethyl-phenyl)-pentan-3-ol] | 65%
4 | CCC(O)(c1cccc(C)c1)C(C)CN1CCN(c2cccc(Cl)c2)CC1 (stereo not shown) [1-[4-(3-Chloro-phenyl)-piperazin-1-yl]-2-methyl-3-m-tolyl-pentan-3-ol] | 42%
5 | CCC(O)(c1ccc(C)cc1)C(C)CN1CCN(c2cccc(Cl)c2)CC1 (stereo not shown) [1-[4-(3-Chloro-phenyl)-piperazin-1-yl]-2-methyl-3-p-tolyl-pentan-3-ol] | 41%
6 | CCC(O)(c1ccccc1)C(C)CN1CCN(c2cccc(Cl)c2)CC1 (stereo not shown) [1-[4-(3-Chloro-phenyl)-piperazin-1-yl]-2-methyl-3-phenyl-pentan-3-ol] | 61%
7 | CCC(O)(c1cccs1)C(C)CN1CCN(c2cccc(Cl)c2)CC1 (stereo not shown) [1-[4-(3-Chloro-phenyl)-piperazin-1-yl]-2-methyl-3-thiophen-2-yl-pentan-3-ol] | 45%
8 | CCC(O)(Cc1cccc(F)c1)C(C)CN1CCN(c2cccc(Cl)c2)CC1 (stereo not shown) [1-[4-(3-Chloro-phenyl)-piperazin-1-yl]-3-(3-fluoro-benzyl)-2-methyl-pentan-3-ol] | 50%
9 | CCC(O)(c1cccc(F)c1)C(C)CN1CCN(c2cccc(Cl)c2)CC1 (stereo not shown) [1-[4-(3-Chloro-phenyl)-piperazin-1-yl]-3-(3-fluoro-phenyl)-2-methyl-pentan-3-ol] | 53%
10 | CCC(O)(c1ccc(F)c(C)c1)C(C)CN1CCN(c2cccc(Cl)c2)CC1 (stereo not shown) [1-[4-(3-Chloro-phenyl)-piperazin-1-yl]-3-(4-fluoro-3-methyl-phenyl)-2-methyl-pentan-3-ol] | 39%
11 | CCC(O)(c1ccc(F)cc1)C(C)CN1CCN(c2cccc(Cl)c2)CC1 (stereo not shown) [1-[4-(3-Chloro-phenyl)-piperazin-1-yl]-3-(4-fluoro-phenyl)-2-methyl-pentan-3-ol] | 53%
12 | CCC(O)(c1ccc(OC)cc1)C(C)CN1CCN(c2cccc(Cl)c2)CC1 (stereo not shown) [1-[4-(3-Chloro-phenyl)-piperazin-1-yl]-3-(4-methoxy-phenyl)-2-methyl-pentan-3-ol] | 45%
13 | CCC(O)(C(C)CN1CCN(c2cccc(Cl)c2)CC1)C1CCCCC1 (stereo not shown) [1-[4-(3-Chloro-phenyl)-piperazin-1-yl]-3-cyclohexyl-2-methyl-pentan-3-ol] | 73%
14 | CCC(O)(CCc1ccccc1)C(C)CN1CCN(c2cccc(Cl)c2)CC1 (stereo not shown) [1-[4-(3-Chloro-phenyl)-piperazin-1-yl]-3-ethyl-2-methyl-5-phenyl-pentan-3-ol] | 52%
15 | CCC(O)(CCCc1ccccc1)C(C)CN1CCN(c2cccc(Cl)c2)CC1 (stereo not shown) [1-[4-(3-Chloro-phenyl)-piperazin-1-yl]-3-ethyl-2-methyl-6-phenyl-hexan-3-ol] | 55%
16 | CCC(O)(c1cccc(Cl)c1)C(C)CN1CCN(c2cccc(Cl)c2)CC1 (stereo not shown) [3-(3-Chloro-phenyl)-1-[4-(3-chloro-phenyl)-piperazin-1-yl]-2-methyl-pentan-3-ol] | 53%
17 | CCC(O)(Cc1ccc(Cl)cc1)C(C)CN1CCN(c2cccc(Cl)c2)CC1 (stereo not shown) [3-(4-Chloro-benzyl)-1-[4-(3-chloro-phenyl)-piperazin-1-yl]-2-methyl-pentan-3-ol] | 39%
18 | CCC(O)(c1ccc(Cl)cc1)C(C)CN1CCN(c2cccc(Cl)c2)CC1 (stereo not shown) [3-(4-Chloro-phenyl)-1-[4-(3-chloro-phenyl)-piperazin-1-yl]-2-methyl-pentan-3-ol] | 54%

The molecules below were run on binding site 2 of the sodium channel (assay: Binding investigations at sodium channel binding site 2 (BTX binding)). Conditions: 10 μM; rat cerebrocortex synaptosomes; [3H]-Batrachotoxinin A20 α-benzoate 10 nM; 37° C., 120 min.
Protocol: Binding Investigations at Sodium Channel Binding Site 2
Binding site 2 of the sodium channel is the so-called batrachotoxin (BTX) binding site. [^3H]-Batrachotoxinin A20 α-benzoate (10 nM in the batch) was used as ligand. These ion channel particles (synaptosomes) were enriched from rat cerebrocortex after Gray and Whittaker (E. G. Gray and V. P. Whittaker (1962) J. Anat. 76, 79-88). The radioactivity measured in the presence of veratridine (0.3 mM in the batch) is defined as non-specific binding.
The assay conditions were as published by Pauwels, Leysen and Laduron (P. J. Pauwels, J. E. Leysen and P. M. Laduron (1986) Eur. J. Pharmacol. 124, 291-298). Incubation at 37° C. for 120 min.

Row | Molecule | BTX binding at 10 μM [%] inhibition
19 | CN1CCN(CC2CCCCC2(O)c2ccc(Cl)cc2Cl)CC1 (stereo not shown) [1-(2,4-Dichloro-phenyl)-2-(4-methyl-piperazin-1-ylmethyl)-cyclohexanol] | 55%
20 | COc1ccc(C2(O)CCCCCCC2CN2CCN(C)CC2)cc1 (stereo not shown) [1-(4-Methoxy-phenyl)-2-(4-methyl-piperazin-1-ylmethyl)-cyclooctanol] | 42%
21 | CN1CCN(CC2CCCCCC2(O)c2ccc(C(C)(C)C)cc2)CC1 (stereo not shown) [1-(4-tert-Butyl-phenyl)-2-(4-methyl-piperazin-1-ylmethyl)-cycloheptanol] | 80%
22 | CN1CCN(CC2CCCCCCC2(O)c2ccc(C(C)(C)C)cc2)CC1 (stereo not shown) [1-(4-tert-Butyl-phenyl)-2-(4-methyl-piperazin-1-ylmethyl)-cyclooctanol] | 64%
23 | CN1CCN(CC2CCCCCC2(O)Cc2ccccc2)CC1 (stereo not shown) [1-Benzyl-2-(4-methyl-piperazin-1-ylmethyl)-cycloheptanol] | 86%
24 | CN1CCN(CC2CCCCC2(O)Cc2ccccc2)CC1 (stereo not shown) [1-Benzyl-2-(4-methyl-piperazin-1-ylmethyl)-cyclohexanol] | 71%
25 | CN1CCN(CC2CCCCCCC2(O)Cc2ccccc2)CC1 (stereo not shown) [1-Benzyl-2-(4-methyl-piperazin-1-ylmethyl)-cyclooctanol] | 75%
26 | CN1CCN(CC2CCCCCC2(O)C2CCCC2)CC1 (stereo not shown) [1-Cyclopentyl-2-(4-methyl-piperazin-1-ylmethyl)-cycloheptanol] | 55%
27 | CN1CCN(CC2CCCCC2(O)C2CCCC2)CC1 (stereo not shown) [1-Cyclopentyl-2-(4-methyl-piperazin-1-ylmethyl)-cyclohexanol] | 49%
28 | CN1CCN(CC2CCCCCCC2(O)C2CCCC2)CC1 (stereo not shown) [1-Cyclopentyl-2-(4-methyl-piperazin-1-ylmethyl)-cyclooctanol] | 48%
29 | CN1CCN(CC2CCCCC2(O)CCCc2ccccc2)CC1 (stereo not shown) [2-(4-Methyl-piperazin-1-ylmethyl)-1-(3-phenyl-propyl)-cyclohexanol] | 80%
30 | CN1CCN(CC2CCCCCCC2(O)CCCc2ccccc2)CC1 (stereo not shown) [2-(4-Methyl-piperazin-1-ylmethyl)-1-(3-phenyl-propyl)-cyclooctanol] | 87%
31 | Cc1cccc(C2(O)CCCCCC2CN2CCN(C)CC2)c1 (stereo not shown) [2-(4-Methyl-piperazin-1-ylmethyl)-1-m-tolyl-cycloheptanol] | 44%
32 | Cc1ccccc1C1(O)CCCCC1CN1CCN(C)CC1 (stereo not shown) [2-(4-Methyl-piperazin-1-ylmethyl)-1-o-tolyl-cyclohexanol] | 50%
33 | CN1CCN(CC2CCCCCCC2(O)c2cccs2)CC1 (stereo not shown) [2-(4-Methyl-piperazin-1-ylmethyl)-1-thiophen-2-yl-cyclooctanol] | 64%
34 | CN1CCN(CC2CCCCC2(O)C2CCCCC2)CC1 (stereo not shown) [2-(4-Methyl-piperazin-1-ylmethyl)-bicyclohexyl-1-ol] | 63%
35 | CCC(O)(c1ccccc1C)C(C)CN1CCN(C)CC1 (stereo not shown) [2-Methyl-1-(4-methyl-piperazin-1-yl)-3-o-tolyl-pentan-3-ol] | 43%
36 | CCC(O)(c1ccc(C)cc1)C(C)CN1CCN(C)CC1 (stereo not shown) [2-Methyl-1-(4-methyl-piperazin-1-yl)-3-p-tolyl-pentan-3-ol] | 48%
37 | CCC(O)(c1ccccc1)C(C)CN1CCN(C)CC1 (stereo not shown) [2-Methyl-1-(4-methyl-piperazin-1-yl)-3-phenyl-pentan-3-ol] | 58%
38 | CCC(O)(c1cccs1)C(C)CN1CCN(C)CC1 (stereo not shown) [2-Methyl-1-(4-methyl-piperazin-1-yl)-3-thiophen-2-yl-pentan-3-ol] | 47%
39 | CCC(O)(c1ccc(Cl)cc1)C(C)CN1CCN(C)CC1 (stereo not shown) [3-(4-Chloro-phenyl)-2-methyl-1-(4-methyl-piperazin-1-yl)-pentan-3-ol] | 59%
40 | CCC(O)(c1ccc(F)c(C)c1)C(C)CN1CCN(C)CC1 (stereo not shown) [3-(4-Fluoro-3-methyl-phenyl)-2-methyl-1-(4-methyl-piperazin-1-yl)-pentan-3-ol] | 56%
41 | CCC(O)(c1ccc(C(C)(C)C)cc1)C(C)CN1CCN(C)CC1 (stereo not shown) [3-(4-tert-Butyl-phenyl)-2-methyl-1-(4-methyl-piperazin-1-yl)-pentan-3-ol] | 68%
42 | CCC(O)(Cc1ccccc1)C(C)CN1CCN(C)CC1 (stereo not shown) [3-Benzyl-2-methyl-1-(4-methyl-piperazin-1-yl)-pentan-3-ol] | 42%
43 | CCC(O)(C(C)CN1CCN(C)CC1)C1CCCCC1 (stereo not shown) [3-Cyclohexyl-2-methyl-1-(4-methyl-piperazin-1-yl)-pentan-3-ol] | 59%
44 | CCC(O)(CCCc1ccccc1)C(C)CN1CCN(C)CC1 (stereo not shown) [3-Ethyl-2-methyl-1-(4-methyl-piperazin-1-yl)-6-phenyl-hexan-3-ol] | 74%
45 | C=CC(O)(CC)C(C)CN1CCN(C)CC1 (stereo not shown) [3-Ethyl-4-methyl-5-(4-methyl-piperazin-1-yl)-pent-1-en-3-ol] | 67%

Same assay, conditions: radioligand; rat cerebrocortex synaptosomes; read-out: KD value for this binding site

Row | Molecule | Kd
46 | [^3H]-Batrachotoxinin A20 α-benzoate [reference compound] | 24.6 nM
